Assay results taken from the supplement of paper PMC10307832.

What was measured:
Assay in all cases: relative viability (nuclei count vs DMSO), 5 days (fraction); higher = more cells survive
[1] = system: NCI-H1755
Procedure, shortened: (§1)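 Values are medians from duplicate plates. Each reflects relative viability, defined as the nuclei count of treated wells over that of vehicle wells. Lung cancer cell lines in 1536-well plates were pin-tool dosed one day after seeding with one drug alone or with a fixed anchor-drug dose plus five library-drug doses (not always all listed) in √10 steps, then fixed, stained and imaged at 4× after 5 days.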

[2] = system: NCI-H2170
Procedure, shortened: as §1

[3] = system: NCI-H1651
Procedure, shortened: as §1

[4] = system: SK-MES-1
Procedure, shortened: as §1

[5] = system: NCI-H1650
Procedure, shortened: as §1

[6] = system: NCI-H1437
Procedure, shortened: as §1

[7] = system: BEN
Procedure, shortened: as §1

[8] = system: NCI-H1666
Procedure, shortened: as §1

[9] = system: NCI-H520
Procedure, shortened: as §1

[10] = system: CAL-12T
Procedure, shortened: as §1

[11] = system: NCI-H2085
Procedure, shortened: as §1

[12] = system: COR-L23
Procedure, shortened: as §1

[13] = system: PC-14
Procedure, shortened: as §1

[14] = system: NCI-H2087
Procedure, shortened: as §1

[15] = system: LU99A
Procedure, shortened: as §1

[16] = system: NCI-H1355
Procedure, shortened: as §1

[17] = system: NCI-H460
Procedure, shortened: as §1

[18] = system: HCC-44
Procedure, shortened: as §1

[19] = system: LXF-289
Procedure, shortened: as §1

[20] = system: NCI-H1993
Procedure, shortened: as §1

[21] = system: NCI-H1792
Procedure, shortened: as §1

Cc1cn(-c2cc(NC(=O)c3ccc(C)c(Nc4nccc(-c5cccnc5)n4)c3)cc(C(F)(F)F)c2)cn1 [Nilotinib] + CC(=O)c1c(C)c2cnc(Nc3ccc(N4CCNCC4)cn3)nc2n(C2CCCC2)c1=O [Palbociclib] (partner 0.5 µM)
relative viability ([1]; first compound 0.001 µM): 0.451
relative viability ([1]; first compound 0.003162 µM): 0.453
relative viability ([1]; first compound 0.01 µM): 0.436
relative viability ([1]; first compound 0.03162 µM): 0.468
relative viability ([1]; first compound 0.1 µM): 0.368
relative viability ([2]; first compound 0.001 µM): 0.373
relative viability ([2]; first compound 0.003162 µM): 0.474
relative viability ([2]; first compound 0.01 µM): 0.436
relative viability ([2]; first compound 0.03162 µM): 0.379
relative viability ([2]; first compound 0.1 µM): 0.44
relative viability ([3]; first compound 0.001 µM): 0.555
relative viability ([3]; first compound 0.003162 µM): 0.601
relative viability ([3]; first compound 0.01 µM): 0.616
relative viability ([3]; first compound 0.03162 µM): 0.448
relative viability ([3]; first compound 0.1 µM): 0.562
relative viability ([4]; first compound 0.001 µM): 0.347
relative viability ([4]; first compound 0.003162 µM): 0.298
relative viability ([4]; first compound 0.01 µM): 0.313
relative viability ([4]; first compound 0.03162 µM): 0.377
relative viability ([4]; first compound 0.1 µM): 0.32
relative viability ([5]; first compound 0.001 µM): 0.329
relative viability ([5]; first compound 0.003162 µM): 0.402
relative viability ([5]; first compound 0.01 µM): 0.324
relative viability ([5]; first compound 0.03162 µM): 0.309
relative viability ([5]; first compound 0.1 µM): 0.298
relative viability ([6]; first compound 0.001 µM): 0.28
relative viability ([6]; first compound 0.003162 µM): 0.304
relative viability ([6]; first compound 0.01 µM): 0.308
relative viability ([6]; first compound 0.03162 µM): 0.276
relative viability ([6]; first compound 0.1 µM): 0.32
relative viability ([7]; first compound 0.001 µM): 0.484
relative viability ([7]; first compound 0.003162 µM): 0.489
relative viability ([7]; first compound 0.01 µM): 0.465
relative viability ([7]; first compound 0.03162 µM): 0.548
relative viability ([7]; first compound 0.1 µM): 0.503
relative viability ([8]; first compound 0.001 µM): 0.62
relative viability ([8]; first compound 0.003162 µM): 0.673
relative viability ([8]; first compound 0.01 µM): 0.588
relative viability ([8]; first compound 0.03162 µM): 0.583
relative viability ([8]; first compound 0.1 µM): 0.65
relative viability ([9]; first compound 0.001 µM): 0.21
relative viability ([9]; first compound 0.003162 µM): 0.219
relative viability ([9]; first compound 0.01 µM): 0.241
relative viability ([9]; first compound 0.03162 µM): 0.218
relative viability ([9]; first compound 0.1 µM): 0.225
relative viability ([10]; first compound 0.001 µM): 0.593
relative viability ([10]; first compound 0.003162 µM): 0.438
relative viability ([10]; first compound 0.01 µM): 0.473
relative viability ([10]; first compound 0.03162 µM): 0.357
relative viability ([10]; first compound 0.1 µM): 0.299
relative viability ([11]; first compound 0.001 µM): 0.525
relative viability ([11]; first compound 0.003162 µM): 0.489
relative viability ([11]; first compound 0.01 µM): 0.536
relative viability ([11]; first compound 0.03162 µM): 0.498
relative viability ([11]; first compound 0.1 µM): 0.393
relative viability ([12]; first compound 0.001 µM): 0.288
relative viability ([12]; first compound 0.003162 µM): 0.301
relative viability ([12]; first compound 0.01 µM): 0.317
relative viability ([12]; first compound 0.03162 µM): 0.268
relative viability ([12]; first compound 0.1 µM): 0.223
relative viability ([13]; first compound 0.001 µM): 0.45
relative viability ([13]; first compound 0.003162 µM): 0.741
relative viability ([13]; first compound 0.01 µM): 0.666
relative viability ([13]; first compound 0.03162 µM): 0.426
relative viability ([13]; first compound 0.1 µM): 0.713
relative viability ([14]; first compound 0.001 µM): 0.219
relative viability ([14]; first compound 0.003162 µM): 0.204
relative viability ([14]; first compound 0.01 µM): 0.213
relative viability ([14]; first compound 0.03162 µM): 0.187
relative viability ([14]; first compound 0.1 µM): 0.201
relative viability ([15]; first compound 0.001 µM): 0.408
relative viability ([15]; first compound 0.003162 µM): 0.377
relative viability ([15]; first compound 0.01 µM): 0.402
relative viability ([15]; first compound 0.03162 µM): 0.44
relative viability ([15]; first compound 0.1 µM): 0.314
relative viability ([16]; first compound 0.001 µM): 0.423
relative viability ([16]; first compound 0.003162 µM): 0.457
relative viability ([16]; first compound 0.01 µM): 0.486
relative viability ([16]; first compound 0.03162 µM): 0.494
relative viability ([16]; first compound 0.1 µM): 0.468
relative viability ([17]; first compound 0.001 µM): 0.101
relative viability ([17]; first compound 0.003162 µM): 0.0788
relative viability ([17]; first compound 0.01 µM): 0.144
relative viability ([17]; first compound 0.03162 µM): 0.148
relative viability ([17]; first compound 0.1 µM): 0.134
relative viability ([18]; first compound 0.001 µM): 0.911
relative viability ([18]; first compound 0.003162 µM): 0.933
relative viability ([18]; first compound 0.01 µM): 0.927
relative viability ([18]; first compound 0.1 µM): 0.931
relative viability ([19]; first compound 0.001 µM): 0.673
relative viability ([19]; first compound 0.003162 µM): 0.771
relative viability ([19]; first compound 0.01 µM): 0.666
relative viability ([19]; first compound 0.03162 µM): 0.607
relative viability ([19]; first compound 0.1 µM): 0.577
relative viability ([20]; first compound 0.001 µM): 0.688
relative viability ([20]; first compound 0.003162 µM): 0.705
relative viability ([20]; first compound 0.01 µM): 0.762
relative viability ([20]; first compound 0.03162 µM): 0.624
relative viability ([20]; first compound 0.1 µM): 0.851
relative viability ([21]; first compound 0.001 µM): 0.582
relative viability ([21]; first compound 0.003162 µM): 0.684
relative viability ([21]; first compound 0.01 µM): 0.732
relative viability ([21]; first compound 0.1 µM): 0.89
